# Measurements as given in PMC6145916, “Interaction of mitochondrial fission factor with dynamin related protein 1 governs physiological mitochondrial function in vivo” (Scientific Reports, 2018).
# Columns and labels:
# Drp1 = details: cited from earlier work
# Excerpt: However, Mdivi-1 cannot distinguish between Drp1′s physiological and pathological activities. […] Strikingly, while inhibiting the interaction between Drp1 and Fis1 slo ...
# [1] = system: neuroblastoma SH-SY5Y cells; assay: Mitochondrial morphology (Tom20 immunofluorescence), SH-SY5Y; assay type: cell-based, human; details: 4 µM TAT-P259 or 10 µM Mdivi-1, 30-minute treatment; n = 3, 10 images each
# Procedure: Represented Western blot is cropped from a full blot shown in the Expanded Western Blots section of the Supplementary Information. […] Hoechst 33342 is shown in blue and Tom20 in green (n = 3, 10 images each). Below, quantification of the form factor (degree of branching) and major axis length (length of mitochondria). At least 6,000 mitochondrial fragments were measured for each condition. Mitochondrial reactive oxygen species (ROS) production (MitoSox Red) (c) and mitochondrial membrane potential (TMRM) (d) after overnight treatment with indicated concentrations of peptide or FCCP. Data are from 3 independent experiments per condition normalized to the average no peptide value. (e) Relative mitochondrial ROS (MitoSox Red) signal in GFP positive cells expressing full-length or alanine-substituted P259 at indicated amino acids after two days of transfection. Values are normalized to a GFP empty vector (n = 3, with 3 replicates). […] Data are mean ± s.e. […]
# Cells were fixed onto Permanox plastic slides with 4% paraformaldehyde in PBS for 10 minutes at room temperature. Cells were permeabilized in 0.1% Triton X-100 and 1% normal goat serum (blocking buffer) for one hour at room temperature. Permeabilized cells were incubated overnight with primary anti-Tom20 antibody (Santa Cruze Biotech, sc-11415, 1:250 dilution) in a humidified chamber. Slides were subsequently incubated with FITC-conjugated goat anti-rabbit IgG for two hours at room temperature in a light-shielding humidified chamber. Cells were washed with blocking buffer and stained with Hoechst 33342 (Invitrogen, OR, USA, […]). Coverslips were mounted with a Slowfade antifade solution (Invitrogen, OR, USA). Images were acquired using an LSM 700 confocal laser-s canning microsc ope equipped with a Plan Apochromat 63x/1.4 NA oil-immersion objective (Zeiss).
# Mitochondrial morphology analysis
# High-throughput image analysis of mitochondrial morphology was performed using MATLAB with the Image Processing toolkit. Background illumination, obtained by morphological opening of the image, was subtracted from the original image. The image was then passed through a top - hat transformation to highlight objects from the background followed by a pixel-wis e adaptive low-pas s Wiener filter to remove noise. A 90th percentile threshold was used to convert the image to a binary image. Erroneously large and small objects were removed from the image and morphological features were extracted from the binary objects. Major axis length is defined as th e length of the longest line that can be drawn through a binary object while the minor axis length is defined as the length of the shortest line. The aspect ratio is defined by the major axis length divided by the minor axis length. […]
# SH-SY5Y cells = assay: Mitochondrial ROS (MitoSox Red) in GFP positive SH-SY5Y cells expressing P259 or alanine-substituted P259; assay type: cell-based, human; details: P259 sequence alone (no TAT carrier) expressed from vector, two days, relative to empty GFP vector; n = 3, with 3 replicates
# Procedure: Represented Western blot is cropped from a full blot shown in the Expanded Western Blots section of the Supplementary Information. […] Hoechst 33342 is shown in blue and Tom20 in green (n = 3, 10 images each). Below, quantification of the form factor (degree of branching) and major axis length (length of mitochondria). At least 6,000 mitochondrial fragments were measured for each condition. Mitochondrial reactive oxygen species (ROS) production (MitoSox Red) (c) and mitochondrial membrane potential (TMRM) (d) after overnight treatment with indicated concentrations of peptide or FCCP. Data are from 3 independent experiments per condition normalized to the average no peptide value. (e) Relative mitochondrial ROS (MitoSox Red) signal in GFP positive cells expressing full-length or alanine-substituted P259 at indicated amino acids after two days of transfection. Values are normalized to a GFP empty vector (n = 3, with 3 replicates). […] Data are mean ± s.e.
# Using mitochondrial ROS as a phenotypic output, we determined which residues of P259 were necessary for its function.
# DMI6000B inverted microscope. All mitochondria were imaged with a GFP fi lter. Then, green […]
# filter every 30 seconds for 5 minutes. […]
# GFP filter (Keyence). […] The GFP and MitoSox signals were measured in a ring around each nucleus. Average MitoSox levels were quantified in […]
# [2] = target: T1, recombinant human Drp1 (dynamin related protein 1) (human, UniProt O00429 1-736); assay: graphene surface with transistors measuring electrical conductance; details: both partners purified
# T1 construct: dynamin related protein 1 (Drp1), human, recombinant; details may stand in the Supplementary Methods; also called recombinant Drp1
# T1 sequence (O00429 whole entry): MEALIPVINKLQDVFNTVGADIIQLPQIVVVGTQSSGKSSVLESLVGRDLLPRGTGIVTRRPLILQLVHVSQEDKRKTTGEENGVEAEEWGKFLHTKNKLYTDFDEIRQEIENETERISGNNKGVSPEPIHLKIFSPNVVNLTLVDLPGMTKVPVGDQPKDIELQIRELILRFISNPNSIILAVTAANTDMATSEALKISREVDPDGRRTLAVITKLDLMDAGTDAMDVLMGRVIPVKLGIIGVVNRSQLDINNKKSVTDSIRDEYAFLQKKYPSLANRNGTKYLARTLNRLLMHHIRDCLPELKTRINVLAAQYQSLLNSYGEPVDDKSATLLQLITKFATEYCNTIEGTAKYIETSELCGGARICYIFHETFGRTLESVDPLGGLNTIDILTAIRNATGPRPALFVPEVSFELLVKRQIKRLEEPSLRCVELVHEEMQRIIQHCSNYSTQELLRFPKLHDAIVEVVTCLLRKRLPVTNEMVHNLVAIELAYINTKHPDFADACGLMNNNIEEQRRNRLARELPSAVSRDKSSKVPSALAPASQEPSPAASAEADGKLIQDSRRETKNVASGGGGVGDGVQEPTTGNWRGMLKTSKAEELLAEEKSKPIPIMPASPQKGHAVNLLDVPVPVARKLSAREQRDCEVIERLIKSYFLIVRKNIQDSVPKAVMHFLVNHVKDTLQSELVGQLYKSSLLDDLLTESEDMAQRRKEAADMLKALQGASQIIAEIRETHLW
molecule,measurement,setting,value
"COc1cc(-n2c(=S)[nH]c3ccccc3c2=O)c(Cl)cc1Cl [Mdivi-1, reference compound]",GTPase activity of Drp1,Drp1,inhibitor of the GTPase activity of Drp1
same,mitochondrial morphology,[1],These effects were similar to treatment with Mdivi-1
IIQLPEIVVV [P259 peptide],mitochondrial ROS levels (MitoSox) in GFP-positive cells,SH-SY5Y cells,doubled mitochondrial ROS levels
"IIQLPEIVVV (peptide, UniProt O00429 22-31, looked up, dynamin related protein 1 (Drp1), residues 22-31, with glutamine 27 replaced by glutamate as found in Mff; The text introduces the TAT carrier only for the cell experiments; whether the in vitro peptide carried it may be told in the Supplementary Methods; also called peptide P259) [P259]",Kd,[2],12 nM
